Data reported in patent US8350062B2, “Synthesis and anticancer activity of new actin-targeting small-molecule agents” (priority 2009, dated 2013).
Entries after “also recorded” stand apart in the source; their conditions may differ.

Tests used:
[1] = mouse, in vivo; cited from earlier work
[2] = test system: F-actin in A549 cells; test: Fluorescent visualization of F-actin in A549 cells (Alexa Fluor 488 phalloidin); format: cell-based, human; conditions: 2 h incubation
Protocol: The presence of the enone increased the severing efficiency of the analogs three-fold. […] We determined whether it was the depletion of actin filaments by analogs 2-5 which was responsible for the growth inhibition of A549 cells. Each of the compounds was incubated with A549 cells for 2 h at a concentration that exceeded the GI50 value by a factor of 5. The cells were then fixed, permeabilized and filamentous actin was visualized by fluorescence microscopy following Alexa Fluor 488 phalloidin staining. […] They induced depolymerization at 150 nM for bistramide A (1), 500 nM for analog 2 and 2 μM for analog 3. Analogs 4 and 5 induced depolymerization of actin only at concentrations as high as 100 μM. […] This observation was consistent with the enhanced cell-based activity of the compounds containing the C(1)-C(4) enone moiety.
Fluorescent Visualization Of F-Actin In Cells. A549 cells grown on coverslips were incubated with analogs 4-8 (100 μM) analog 3 (2 μM) or analog 2 (500 nM) or bistramide A (150 nM) in F-12K cell culture medium for 2 h, fixed with 3% formaldehyde in PBS at 25° C. for 5 min and permeabilized with 0.1% Triton X-100 at 25° C. for 10 min. After washing with PBS, coverslips were stained with Alexa Fluor 488 Phalloidin and visualized by fluorescence microscopy.

[3] = molecular target: filamentous actin (Oryctolagus cuniculus, UniProt P68135); test: TIRF microscopy of actin filament severing and depolymerization; format: biochemical, rabbit; set-up: Actin was purified from rabbit muscle acetone powder; tissue Pel-Freez Biologicals (acetone powder); host or cells: rabbit muscle acetone powder
Source text: To gain further insight into the mode of action of bistramide A, we next investigated the interaction of the natural product and its analogs with filamentous actin. […] Similar observations have been reported for several other actin-binding natural products. However, this effect could provide only limited mechanistic information and may primarily reflect the binding of a small molecule to the filaments in close proximity to the dye and quenching of pyrene fluorescence, which could be independent of the rates of actin depolymerization. Some proteins like myosin and Actin Depolymerizing Factor (ADF)/Cofilin are known to do so. Total internal reflection fluorescence (TIRF) microscopy has recently emerged as a powerful tool to investigate actin filament dynamics and its regulation by several actin-binding proteins, as well as latrunculin A, which is […] depolymerizing filamentous actin in vitro. Thus, we decided to employ TIRF microscopy to observe in real time the effects of bistramide-based compounds on actin polymerization in vitro. We believe this is the first instance where TIRF microscopy has been utilized to study the severing of actin filaments by a small molecule. We polymerized G-actin containing 25% of tetramethylrhodamine-functionalized and 10% of biotin-functionalized actin. The resulting actin filaments were immobilized onto the streptavidin-coated glass slides (in a flow cell). Analogs 1-8 were flown through the flow cell and imaged by time-lapse TIRF microscopy.
Total Internal Reflection Fluorescence Microscopy. Actin filament severing was studied using a custom-built total internal reflection fluorescence microscope. Images were collected with a 100×, 1.45 NA objective (Olympus) and an EMCCD camera (iXon, Andor Technologies). Glass flow cell (6 μl volume) was washed with 0.25 mg/ml neutravidin in F-buffer (50 mM KCl, 1 mM MgCl2, 1 mM EGTA, 10 mM imidiazole, 2 mM ATP, 0.2 mM 2-mercaptoethanol, 2 min) and blocked with 1 mg/ml BSA in F-buffer (2 min). Ten microliters of 200 nM Mg^2+-F-actin (10% biotinylated, 25% labeled with maleimide-6-tetramethylrhodamine) in TIRF-buffer (50 mM KCl, 1 mM MgCl2, 1 mM EGTA, 10 mM imidiazole, 2 mM ATP, 4.5 mg/ml glucose, 0.5% 2-mercaptoethanol, 4.3 mg/ml glucose oxidase, 0.7 mg/ml catalase) was added to the flowcell and incubated for 2 min. The chamber was rinsed with TIRF-buffer and imaged. Compounds were freshly diluted from their DMSO stock solutions in TIRF-buffer and were added to the chamber immediately after the start of each experiment. Images were collected at 0.2-s exposures every 3 s for 200 frames. For kinetics studies, movies of suitable length were obtained for each of the analog concentrations. Analysis was performed using ImageJ.

[4] = test system: A549 cells; test: Cell viability assay (CellTiter-Glo), growth inhibition of A549 cells; format: cell-based, human; conditions: Homo sapiens, A549, 48 h, 48 h incubation
Protocol: Cell Viability Assays. All assays were performed using at least three replicate wells for each concentration tested. Original 10-25 mM DMSO stock solution of bistramide A or its analogs was diluted to 100 μM for analogs 4-8, 10 μM for analog 3, 5 μM for analog 2 and 1 μM for bistramide A (1) with F-12K cell culture media supplemented with 10% fetal bovine serum, 100 I.U./ml penicillin, 100 μg/ml streptomycin and 2 mM L-glutamine. Two-fold serial dilutions were performed and used for cell-based assays. A549 cells were grown in 96-well white plates at the density of 1,000 cells per well in 100 μl F-12K cell culture media. Cells were allowed to attach over 24 h and treated with 30 μl of the drug solution and incubated further for 48 h. After incubation, cell viability was determined using luminescence-based commercial kit (CellTiter-Glo, Promega) and luminescence measured using a Wallac Victor 3 plate reader. To measure cell growth inhibition, viability assays were performed twice: at initial time point T0 and after 48 h incubation (T48). Change in the number of viable cells was measured, and GI50 was calculated from sigmoidal plots. For analog 10, growth of A549 and PC3 cells was monitored over 96 h following addition of the drug. 100 μM was the highest concentration tested. At no point did the total DMSO conc. exceed 1%.

[5] = molecular target: T1, G-actin (Oryctolagus cuniculus, UniProt P68135); test: Interaction with actin by MALDI-TOF (covalent modification); format: biochemical, rabbit; conditions: 1:1 actin-drug complex, 30 min
T1 construct: Actin was purified from rabbit muscle acetone powder; tissue Pel-Freez Biologicals (acetone powder); host or cells: rabbit muscle acetone powder
Protocol: Interaction Of Bistramide-Based Compounds With Actin By MALDI-TOF. A 1:1 actin-drug complex was incubated for 30 min in 2 mM Tris-HCl, pH 8.0, 0.2 mM CaCl2, 0.01% NaN3, 0.2 mM ATP, 1 mM 2-mercaptoethanol, diluted with deionized water to 26 μM and mixed with an equal volume of a solution of 10 mg/ml sinapinic acid in 50% CH3CN— 0.1% TFA. MALDI spectra were obtained on a Voyager-DE PRO biospectrometry workstation.

[6] = molecular target: T1, G-actin; test: Isothermal titration calorimetry, binding to monomeric actin; set-up: species or system rabbit
Protocol: Isothermal Titration Calorimetry. A solution of rabbit skeletal muscle actin (5-10 μM) was titrated with bistramide A or its analog (50-100 μM) at 25° C. in buffer containing 2 mM Tris HCl, pH 8.0, 0.2 mM CaCl2, 0.01% NaN3, 0.2 mM ATP, 0.2 mM 2-mercaptoethanol. Dissociation constants were calculated from the binding curve using Origin analytical software (OriginLab) with the binding model involving a single set of identical sites

[7] = test system: non-small cell broncho-pulmonary carcinoma xenografts; conditions: mouse, in vivo; cited from earlier work

Row | Structure (SMILES) | general toxicity [1] | concentration inducing actin depolymerization in A549 cells [2] [nM] | effect on filamentous actin ([3]; 750 nM) | No. of breaks per 100 μm ([3]; compound at 0.75 μM) [per 100 μm] | Pointed-end depolymerization rate ([3]; compound at 0.75 μM, standard deviations 0.1-0.3 subunits/s) [subunits/s] | Barbed-end depolymerization rate ([3]; compound at 0.75 μM, standard deviations 0.4-0.6 subunits/s) [subunits/s] | GI50 [4] [µM] | GI50 ([4]; values of the text) [µM] | covalent modification of G-actin [5] | Kd [6] [µM] | inhibition of tumor growth in xenograft model [7] | dose with no observed toxicity [1]
1 | C/C=C/C(=O)C[C@@H]1CCC(C)C(CC(=O)NC[C@H](O)[C@H](C)C(=O)NCCC[C@H]2O[C@@]3(CCC[C@@H](CC[C@H](C)/C=C(\C)C(C)O)O3)CCC2C)O1 (some centres unmarked) [Bistramide A (1), bistramide A, reference compound] | high general toxicity | 150 | rapid filament depletion | 40.4 | 0.49 | 1.88 | 0.02 | 0.0204 | covalently modified G-actin | 0.007 | ineffective at reducing tumor growth | –
2 | C/C=C/C(O)C/C=C/CC(C)C(O)CC(=O)NCC(O)C(C)C(=O)NCCCC1OC2(CCCC(CCC(C)/C=C(\C)C(C)O)O2)CCC1C (centres unmarked) [bistramide K] | – | – | – | – | – | – | – | – | – | – | shown to inhibit proliferation; also recorded: effective at inhibiting tumor growth in vivo | up to 200 mg/kg
3 | C/C=C/[C@H](O)CC1CCC(C)C(CC(=O)NCC(O)C(C)C(=O)NCCCC2OC3(CCCC(CCC(C)/C=C(\C)C(C)O)O3)CCC2C)O1 (some centres unmarked) [bistramide D] | – | – | – | – | – | – | – | – | – | – | shown to inhibit proliferation; also recorded: effective at inhibiting tumor growth in vivo | –
